Data: patent publication US12465603B2, “Phthalazinone based modulators for the treatment of disease” (Soley Therapeutics, Inc., priority 2022, dated 2025)

Columns and labels:
[1] = tested on: PA1 (ECACC, 90013101) cells; experiment: Cell viability assay (Cell Titre Glo, 72 hours) in PA1 cells; format: cell-based; conditions: Homo sapiens, PA-1
In short: (§1)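 10-point dose response, top final concentration 30 μM, 1 in 3 dilutions; 5000 cells per well added directly to compound. Incubated 72 hours at 37° C, 5% CO2, then viability read by Cell Titre Glo luminescence and IC50 curves fitted.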

[2] = tested on: A2058 (ATCC, CRL-11147) cells; experiment: Cell viability assay (Cell Titre Glo, 72 hours) in A2058 cells; format: cell-based; conditions: Homo sapiens
In short: as §1

CCn1nc(C(=O)N2CCN(c3ccc(Cl)cc3OC)CC2)c2ccccc2c1=O [Compound 117]
IC50 [1]: ≤ 1 µM | IC50 [2]: ≤ 1 µM

Cc1cc(C#N)cc(N2CCN(C(=O)c3nn(C)c(=O)c4ccncc34)CC2)c1 [Compound 214]
IC50 [1]: ≤ 1 µM | IC50 [2]: 1 to 10 µM

Cn1nc(C(=O)N2CCN(c3cccnc3)CC2)c2ccccc2c1=O [Compound 32]
IC50 [1]: > 20 µM | IC50 [2]: > 20 µM

Cc1cc(N2CCN(C(=O)c3nn(C)c(=O)c4ccc(F)cc34)CC2)ccn1 [Compound 161]
IC50 [1]: > 20 µM | IC50 [2]: > 20 µM

Cc1cc(Cl)cc(N2CCN(C(=O)c3nn(C)c(=O)c4ccncc34)CC2)c1 [Compound 221]
IC50 [1]: ≤ 1 µM | IC50 [2]: ≤ 1 µM

COc1ccnc(N2CCN(C(=O)c3nn(C)c(=O)c4ccccc34)CC2)n1 [Compound 72]
IC50 [1]: 1 to 10 µM | IC50 [2]: 1 to 10 µM

CCn1nc(C(=O)N2CCN(c3ccnc4ccoc34)CC2)c2ccccc2c1=O [Compound 95]
IC50 [1]: ≤ 1 µM | IC50 [2]: ≤ 1 µM

Cn1nc(C(=O)N2CCN(c3ccc(C#N)cc3)CC2)c2ccccc2c1=O [Compound 46]
IC50 [1]: 1 to 10 µM | IC50 [2]: 1 to 10 µM

Cn1nc(C(=O)N2CCN(c3cccc4cnn(C)c34)CC2)c2ccccc2c1=O [Compound 191]
IC50 [1]: > 20 µM | IC50 [2]: > 20 µM

CCn1nc(C(=O)N2CCN(c3cnccc3OC)CC2)c2cc(F)ccc2c1=O [Compound 236, 2-ethyl-6-fluoro-4-(4-(4-methoxypyridin-3-yl)piperazine-1-carbonyl)phthalazin-1(2H)-one]
IC50 [1]: ≤ 1 µM | IC50 [2]: ≤ 1 µM

CCn1nc(C(=O)N2CCN(c3cc(C)ccn3)CC2)c2ccccc2c1=O [Compound 110]
IC50 [1]: 1 to 10 µM | IC50 [2]: 1 to 10 µM

Cn1nc(C(=O)N2CCN(c3cc(C#N)cc(C(F)F)c3)CC2)c2ccccc2c1=O [Compound 201]
IC50 [1]: ≤ 1 µM | IC50 [2]: ≤ 1 µM

COc1cc(C#N)cc(N2CCN(C(=O)c3nn(C)c(=O)c4ccncc34)CC2)c1 [Compound 216]
IC50 [1]: ≤ 1 µM | IC50 [2]: ≤ 1 µM

CCOc1cc(F)ccc1N1CCN(C(=O)c2nn(C)c(=O)c3ccccc23)CC1 [Compound 58]
IC50 [1]: ≤ 1 µM | IC50 [2]: 1 to 10 µM

CN1CCc2cccc(N3CCN(C(=O)c4nn(C)c(=O)c5ccccc45)CC3)c21 [Compound 79]
IC50 [1]: 10 to 20 µM | IC50 [2]: 10 to 20 µM

CCn1nc(C(=O)N2CCN(c3ncc(C#N)cc3F)CC2)c2ccccc2c1=O [Compound 86]
IC50 [1]: > 20 µM | IC50 [2]: > 20 µM

CCn1nc(C(=O)N2CCN(c3ncccc3C3CC3)CC2)c2ccccc2c1=O [Compound 108]
IC50 [1]: ≤ 1 µM | IC50 [2]: ≤ 1 µM

CCn1nc(C(=O)N2CCN(c3c(C)cccc3OC)CC2)c2ccccc2c1=O [Compound 154]
IC50 [1]: 1 to 10 µM | IC50 [2]: 1 to 10 µM

CCn1nc(C(=O)N2CCN(c3ccccc3C3CC3)CC2)c2ccccc2c1=O [Compound 103]
IC50 [1]: ≤ 1 µM | IC50 [2]: ≤ 1 µM

Cc1cc(C#N)cc(N2CCN(C(=O)c3nn(C)c(=O)c4ccccc34)CC2)c1 [Compound 68]
IC50 [1]: ≤ 1 µM | IC50 [2]: ≤ 1 µM

CCn1nc(C(=O)N2CCN(c3cccnc3OC)CC2)c2ccccc2c1=O [Compound 143]
IC50 [1]: ≤ 1 µM | IC50 [2]: ≤ 1 µM

COc1cc(F)cc(N2CCN(C(=O)c3nn(C)c(=O)c4ncccc34)CC2)c1 [Compound 184, 5-(4-(3-fluoro-5-methoxyphenyl)piperazine-1-carbonyl)-7-methylpyrido[2,3-d]pyridazin-8(7H)-one]
IC50 [1]: 1 to 10 µM | IC50 [2]: 10 to 20 µM

Cn1nc(C(=O)N2CCC(c3ccccc3)CC2)c2ccccc2c1=O [Compound 2]
IC50 [1]: 1 to 10 µM | IC50 [2]: 10 to 20 µM

COc1cc(N2CCN(C(=O)c3nn(C)c(=O)c4ccc(F)cc34)CC2)ccn1 [Compound 163]
IC50 [1]: > 20 µM | IC50 [2]: > 20 µM

COc1ncc(C)cc1N1CCN(C(=O)c2nn(C)c(=O)c3ccccc23)CC1 [Compound 77]
IC50 [1]: 1 to 10 µM | IC50 [2]: 1 to 10 µM

CCc1ccncc1N1CCN(C(=O)c2nn(C)c(=O)c3ccc(F)cc23)CC1 [Compound 166]
IC50 [1]: ≤ 1 µM | IC50 [2]: ≤ 1 µM

CCn1nc(C(=O)N2CCN(c3ccccc3C#N)CC2)c2ccccc2c1=O [Compound 133]
IC50 [1]: 10 to 20 µM | IC50 [2]: > 20 µM

Cn1nc(C(=O)N2CCN(c3cncc(C#N)c3)CC2)c2ccccc2c1=O [Compound 226]
IC50 [1]: > 20 µM | IC50 [2]: > 20 µM

CCn1nc(C(=O)N2CCN(c3nnccc3OC)CC2)c2ccccc2c1=O [Compound 94]
IC50 [1]: 1 to 10 µM | IC50 [2]: 10 to 20 µM

Cn1nc(C(=O)N2CCN(c3cccc(C#N)c3)CC2)c2ccccc2c1=O [Compound 49]
IC50 [1]: ≤ 1 µM | IC50 [2]: ≤ 1 µM

CCn1nc(C(=O)N2CCN(c3ccc(F)c4c3CCO4)CC2)c2ccccc2c1=O [Compound 188]
IC50 [1]: ≤ 1 µM | IC50 [2]: ≤ 1 µM

Cn1nc(C(=O)N2CCN(c3cc(F)cc(Cl)c3)CC2)c2ccccc2c1=O [Compound 45]
IC50 [1]: ≤ 1 µM | IC50 [2]: ≤ 1 µM

Cn1nc(C(=O)N2CCN(c3nccc4occc34)CC2)c2ccccc2c1=O [Compound 195]
IC50 [1]: 10 to 20 µM | IC50 [2]: 10 to 20 µM

CCn1nc(C(=O)N2CCN(c3ncc(F)cc3C(F)(F)F)CC2)c2ccccc2c1=O [Compound 140]
IC50 [1]: 1 to 10 µM | IC50 [2]: 1 to 10 µM

Cc1cc(C#N)cc(N2CCN(C(=O)c3nn(C)c(=O)c4ccc(F)cc34)CC2)c1 [Compound 235]
IC50 [1]: ≤ 1 µM | IC50 [2]: ≤ 1 µM

CCn1nc(C(=O)N2CCN(c3ncc(C)cc3F)CC2)c2ccccc2c1=O [Compound 139]
IC50 [1]: > 20 µM | IC50 [2]: > 20 µM

COc1ncccc1N1CCN(C(=O)c2nn(C)c(=O)c3ccccc23)CC1 [Compound 20]
IC50 [1]: 1 to 10 µM | IC50 [2]: 1 to 10 µM

COc1ccncc1N1CCN(C(=O)c2nn(C)c(=O)c3ccccc23)CC1 [Compound 37]
IC50 [1]: ≤ 1 µM | IC50 [2]: ≤ 1 µM

Cn1nc(C(=O)N2CCN(c3cc(F)cc(C#N)c3)CC2)c2cc(F)ccc2c1=O [Compound 212]
IC50 [1]: ≤ 1 µM | IC50 [2]: ≤ 1 µM

COc1cc(Cl)ccc1N1CCN(C(=O)c2nn(C)c(=O)c3ccccc23)CC1 [Compound 57]
IC50 [1]: ≤ 1 µM | IC50 [2]: 1 to 10 µM

CCn1nc(C(=O)N2CCN(c3ncc(C#N)cc3C)CC2)c2ccccc2c1=O [Compound 91]
IC50 [1]: > 20 µM | IC50 [2]: > 20 µM

CCn1nc(C(=O)N2CCN(c3cc(F)ccn3)CC2)c2ccccc2c1=O [Compound 109]
IC50 [1]: 1 to 10 µM | IC50 [2]: 1 to 10 µM

Cc1nc2c(N3CCN(C(=O)c4nn(C)c(=O)c5ccccc45)CC3)cccc2o1 [Compound 53]
IC50 [1]: 1 to 10 µM | IC50 [2]: 1 to 10 µM

Cn1nc(C(=O)N2CCN(c3ccccn3)CC2)c2ccccc2c1=O [Compound 31]
IC50 [1]: > 20 µM | IC50 [2]: > 20 µM

CCn1nc(C(=O)N2CCN(c3cccc(F)n3)CC2)c2ccccc2c1=O [Compound 82]
IC50 [1]: 10 to 20 µM | IC50 [2]: > 20 µM

CCn1nc(C(=O)N2CCN(c3ncncc3C)CC2)c2ccccc2c1=O [Compound 113]
IC50 [1]: > 20 µM | IC50 [2]: > 20 µM

CCn1nc(C(=O)N2CCN(c3cccc4c3CCO4)CC2)c2ccccc2c1=O [Compound 155]
IC50 [1]: ≤ 1 µM | IC50 [2]: ≤ 1 µM

CCn1nc(C(=O)N2CCN(c3ccncc3C3CC3)CC2)c2ccccc2c1=O [Compound 115]
IC50 [1]: ≤ 1 µM | IC50 [2]: ≤ 1 µM

Cn1nc(C(=O)N2CCN(c3cc(C#N)cc(OC(F)F)c3)CC2)c2ccccc2c1=O [Compound 199]
IC50 [1]: ≤ 1 µM | IC50 [2]: ≤ 1 µM

Cc1cc(N2CCN(C(=O)c3nn(C)c(=O)c4ccccc34)CC2)ccc1F [Compound 55]
IC50 [1]: 10 to 20 µM | IC50 [2]: > 20 µM

CCn1nc(C(=O)N2CCN(c3cc(F)c(F)cc3OC)CC2)c2ccccc2c1=O [Compound 144]
IC50 [1]: ≤ 1 µM | IC50 [2]: ≤ 1 µM

COc1ccncc1N1CCN(C(=O)c2nn(C)c(=O)c3ccc(F)cc23)CC1 [Compound 158]
IC50 [1]: ≤ 1 µM | IC50 [2]: ≤ 1 µM

Cn1nc(C(=O)N2CCN(c3cccc(F)c3)CC2)c2ccccc2c1=O [Compound 33]
IC50 [1]: ≤ 1 µM | IC50 [2]: ≤ 1 µM

CCn1nc(C(=O)N2CCN(c3ccc(C(F)(F)F)cc3C)CC2)c2ccccc2c1=O [Compound 104]
IC50 [1]: 1 to 10 µM | IC50 [2]: 1 to 10 µM

COc1cc(C#N)cc(N2CCN(C(=O)c3nn(C)c(=O)c4ccc(F)cc34)CC2)c1 [Compound 213]
IC50 [1]: ≤ 1 µM | IC50 [2]: ≤ 1 µM

COc1cc(N2CCN(C(=O)c3nn(C)c(=O)c4ccccc34)CC2)cnn1 [Compound 12]
IC50 [1]: 10 to 20 µM | IC50 [2]: 10 to 20 µM

Cn1nc(C(=O)N2CCN(c3cc(F)cc(C#N)c3)CC2)c2cnccc2c1=O [Compound 220]
IC50 [1]: 1 to 10 µM | IC50 [2]: 1 to 10 µM

COc1cc(F)cc(N2CCN(C(=O)c3nn(C)c(=O)c4ccncc34)CC2)c1 [Compound 176]
IC50 [1]: ≤ 1 µM | IC50 [2]: ≤ 1 µM

CC(C)c1cncc(N2CCN(C(=O)c3nn(C)c(=O)c4ccc(F)cc34)CC2)c1 [Compound 209]
IC50 [1]: 10 to 20 µM | IC50 [2]: 10 to 20 µM

CCn1nc(C(=O)N2CCN(c3cc(OC)c(Br)cn3)CC2)c2ccccc2c1=O [Compound 89]
IC50 [1]: > 20 µM | IC50 [2]: > 20 µM

CCn1nc(C(=O)N2CCN(c3ccccc3OCCOC)CC2)c2ccccc2c1=O [Compound 129]
IC50 [1]: > 20 µM | IC50 [2]: > 20 µM

COc1cc(F)cnc1N1CCN(C(=O)c2nn(C)c(=O)c3ccccc23)CC1 [Compound 13]
IC50 [1]: 1 to 10 µM | IC50 [2]: 10 to 20 µM

CCOc1ccccc1N1CCN(C(=O)c2nn(CC)c(=O)c3ccccc23)CC1 [Compound 134]
IC50 [1]: ≤ 1 µM | IC50 [2]: ≤ 1 µM

O=C(c1nn(CC(F)(F)F)c(=O)c2ccccc12)N1CCN(c2ccccc2)CC1 [Compound 6]
IC50 [1]: > 20 µM | IC50 [2]: > 20 µM

Cc1ccc(C#N)cc1N1CCN(C(=O)c2nn(C)c(=O)c3ccc(F)cc23)CC1 [Compound 211]
IC50 [1]: ≤ 1 µM | IC50 [2]: ≤ 1 µM

Cn1nc(C(=O)N2CCN(c3ccccc3C3CC3)CC2)c2cnccc2c1=O [Compound 177]
IC50 [1]: ≤ 1 µM | IC50 [2]: ≤ 1 µM

COCc1ccnc(N2CCN(C(=O)c3nn(C)c(=O)c4ccccc34)CC2)n1 [Compound 65]
IC50 [1]: > 20 µM | IC50 [2]: > 20 µM
